Structures are written as SMILES. Active and inactive are the calls of the source. No rule for the calls is given here.

22 compounds from PubChem BioAssay AID1259408 (Genetic Toxicology Data Bank (GENE-TOX), 2018) can be followed below.

The test system of the data set is GENE-TOX genotoxicity assays, various organisms and cells. Briefly: GENE-TOX mutagenicity studies. The settings on record: for call: Assay Type: In vivo carcinogenicity studies.
Where [1] appears, read: Species/Cell Type: Nonhuman, Assay Code: CCGT, Evaluation Type: Evaluation A (Pre-1980).
Where [2] appears, read: Species/Cell Type: Salmonella typhimurium (one or more of the five standard strains: TA98, TA100, TA1535, TA1537, and TA1538), Assay Type: Histidine reverse gene mutation, Ames assay, Assay Code: SAL+, Evaluation Type: Evaluation A (Pre-1980).
[3] abbreviates: Species/Cell Type: Nonhuman, Assay Code: CCG+, Evaluation Type: Evaluation A (Pre-1980).
Where [4] appears, read: Species/Cell Type: Nonhuman, Assay Type: Sister-chromatid exchange (SCE) in vitro, Assay Code: SC2-, Evaluation Type: Evaluation B (Post-1980).
Where [5] appears, read: Species/Cell Type: Saccharomyces cerevisiae, Assay Type: Mitotic recombination or gene conversion, Assay Code: YEC-, Evaluation Type: Evaluation A (Pre-1980).
The mark [6] stands for this setting: Species/Cell Type: Nonhuman, Assay Type: Sister-chromatid exchange (SCE) in vitro, Assay Code: SC2+D, Dose Response: With dose response, Evaluation Type: Evaluation B (Post-1980).
Setting [7] is: Species/Cell Type: Bacillus subtilis (H17 vs M45), Assay Type: Rec-assay, spot test, DNA effects (bacterial DNA repair), Assay Code: REW-, Evaluation Type: Evaluation A (Pre-1980).
The mark [8] stands for this setting: Species/Cell Type: Human diploid fibroblasts, Assay Type: Unscheduled DNA synthesis (UDS) in vitro, DNA effects, Assay Code: UDH-, Evaluation Type: Evaluation A (Pre-1980).

As for `Oc1ccc2ccc3cc4ccccc4c4ccc1c2c34`, the mutagenic call is “inactive; positive without activation, negative with activation” (Species/Cell Type: Chinese hamster lung (V79) cells, Assay Type: Forward gene mutation at the HPRT or ouabain locus, Assay Code: V79+/-*, Activation: With metabolic activation, Evaluation Type: Evaluation A (Pre-1980)) and “active; positive” under setting [2]. Also, the call under setting [1] is reported as “no conclusion”.
For `c1ccc2c(c1)cc1ccc3cccc4c5ccccc5c2c1c34`, under setting [3], the call was “active; positive”.
In the case of `[I][Hg][I]`, the mutagenic call under setting [4] is “inactive; negative”.
Regarding `CNC(=O)Nc1nc2ccccc2s1`, the mutagenic call under setting [5] was “inactive; negative”.
Turning to `CCN(CC)C(=S)SSC(=S)N(CC)CC`, the mutagenic call (Species/Cell Type: Mammalian polychromatic erythrocytes, Assay Type: Micronucleus test, chromosome aberrations, Assay Code: MNTT, Evaluation Type: Evaluation B (Post-1980)) is on record as “no conclusion”. In addition, the call (Species/Cell Type: Nonhuman, Assay Code: CCG-, Evaluation Type: Evaluation A (Pre-1980)) was “inactive; negative”.
On to `O=C(NO)c1ccc2ccccc2c1`, for which the mutagenic call runs as follows: under setting [6], “active; positive”; under setting [2], “active; positive”.
On to `CO[C@@H]1CC(O[C@H]2CC[C@@]3(C=O)[C@](O)(CC[C@]4(C)[C@]3(C)CC[C@]3(C)[C@@H](C5=CC(=O)OC5)CC[C@@]43O)C2)O[C@H](C)C1O[C@H]1C[C@@H](CO)[C@H](O)[C@@H](O)[C@@H]1O` (some centres undefined), for which, under setting [4], the mutagenic call is “inactive; negative”.
Regarding `[Cl][Th]([Cl])([Cl])[Cl]`, the mutagenic call under setting [7] was “inactive; negative”.
With `Nc1ccc2c(S(=O)(=O)O)cccc2c1S(=O)(=O)O`, the mutagenic call (Species/Cell Type: Salmonella typhimurium (one or more of the five standard strains: TA98, TA100, TA1535, TA1537, and TA1538), Assay Type: Histidine reverse gene mutation, Ames assay, Assay Code: SALT, Evaluation Type: Evaluation A (Pre-1980)) was “no conclusion”.
For the compound `CCCCSC(=Nc1cccnc1)SCc1ccc(C(C)(C)C)cc1`, the mutagenic call (Species/Cell Type: Salmonella typhimurium, Assay Type: Forward and reverse gene mutation, host-mediated assay, Assay Code: HMA-, Evaluation Type: Evaluation A (Pre-1980)) is “inactive; negative”.
Turning to `CN1CCN(CCCN2c3ccccc3Sc3ccc(S(=O)(=O)N(C)C)cc32)CC1`, the mutagenic call (Species/Cell Type: Rodents, Sex: Male, Assay Type: Dominant lethal test, Assay Code: DLT-, Evaluation Type: Evaluation A (Pre-1980)) is “inactive; negative”.
Regarding `c1ccc2c(c1)Nc1ccccc1S2`, the mutagenic call (Species/Cell Type: Syrian hamster embryo (SA7/SHE) cells, Assay Type: Cell transformation, viral enhanced, Assay Code: CT7+, Evaluation Type: Evaluation A (Pre-1980)) was “active; positive”.
On to `CCCCOc1ccc(CC(=O)NOC=O)cc1`, for which, under setting [6], the mutagenic call is “active; positive”.
On to `CC(C)=CC1C(C(=O)O)C1(C)C` (centres undefined), for which the mutagenic call was “inactive; negative” under setting [8] and “inactive; negative” (Species/Cell Type: Saccharomyces cerevisiae, Assay Type: Mitotic recombination or gene conversion, Assay Code: YEH-, Evaluation Type: Evaluation A (Pre-1980)).
`C[C@H]1CCCCN1N=O`: the call under setting [3] was “active; positive”.
Regarding `[N-]=[N+]=[N-]`, the mutagenic call runs as follows: (Species/Cell Type: Arabidopsis species, Assay Type: Gene mutation, Assay Code: ARMT, Evaluation Type: Evaluation A (Pre-1980)) “no conclusion”; (Species/Cell Type: Drosophila melanogaster, Assay Type: Sex-linked recessive lethal gene mutation, Assay Code: SRL+, Evaluation Type: Evaluation A (Pre-1980)) “active; positive”; (Species/Cell Type: Escherichia coli WP2, Assay Type: Tryptophan reverse gene mutation, Assay Code: WP2T, Evaluation Type: Evaluation A (Pre-1980)) “no conclusion”; (Species/Cell Type: Escherichia coli WP2 UVRA, Assay Type: Tryptophan reverse gene mutation, Assay Code: WPU-, Evaluation Type: Evaluation A (Pre-1980)) “inactive; negative”; (Species/Cell Type: Glycine max (soybean), Assay Type: Gene mutation, Assay Code: GLM+, Evaluation Type: Evaluation A (Pre-1980)) “active; positive”; (Species/Cell Type: Hordeum vulgare (barley), Assay Type: Gene mutation, Assay Code: HOM+, Evaluation Type: Evaluation A (Pre-1980)) “active; positive”. The mutagenic call runs as follows: under setting [8], “inactive; negative”; (Species/Cell Type: Human lymphocytes or leukocytes, Assay Type: Chromosome aberrations in vitro, Assay Code: CY7-, Evaluation Type: Evaluation A (Pre-1980)) “inactive; negative”; (Species/Cell Type: Human lymphocytes, Assay Type: Sister-chromatid exchange (SCE) in vitro, Assay Code: SCL+, Evaluation Type: Evaluation B (Post-1980)) “active; positive”; (Species/Cell Type: Human, Assay Type: Sister-chromatid exchange (SCE) in vitro, Assay Code: SC1+, Evaluation Type: Evaluation B (Post-1980)) “active; positive”; (Species/Cell Type: Mouse lymphoma (L5178Y) cells, Assay Type: Forward gene mutation at the thymidine kinase (TK) locus, chromosome aberrations, Assay Code: L51+, Evaluation Type: Evaluation A (Pre-1980)) “active; positive”; (Species/Cell Type: Mouse, Sex: Male, Assay Type: Sperm morphology, Assay Code: SPI-, Evaluation Type: Evaluation A (Pre-1980)) “inactive; negative”. Moreover, the mutagenic call is “active; positive” (Species/Cell Type: Saccharomyces cerevisiae, Assay Type: Forward gene mutation, Assay Code: YEF+, Evaluation Type: Evaluation A (Pre-1980)); “active; positive” (Species/Cell Type: Saccharomyces cerevisiae, Assay Type: Mitotic recombination or gene conversion, Assay Code: YEC+, Evaluation Type: Evaluation A (Pre-1980)); “active; positive” (Species/Cell Type: Saccharomyces cerevisiae, Assay Type: Reverse gene mutation, Assay Code: YER+*, Activation: With metabolic activation, Evaluation Type: Evaluation A (Pre-1980)); “active; positive” under setting [2]; “active; positive” (Species/Cell Type: Tradescantia species, Assay Type: Chromosome aberrations, Assay Code: TRC+D, Dose Response: With dose response, Evaluation Type: Evaluation A (Pre-1980)); “active; positive” (Species/Cell Type: Tradescantia species, Assay Type: Gene mutation, Assay Code: TRM+D, Dose Response: With dose response, Evaluation Type: Evaluation A (Pre-1980)). Further, the mutagenic call (Species/Cell Type: Zea mays (corn), Assay Type: Gene mutation, Assay Code: ZEM+D, Dose Response: With dose response, Evaluation Type: Evaluation A (Pre-1980)) is “active; positive”. Further, under setting [1], the call was “no conclusion”.
Consider `C#CC(C)OC(=O)Nc1cccc(Cl)c1` (centres undefined) (tested in a mixture with another compound), for which the mutagenic call under setting [5] is “inactive; negative”.
Consider `NCCc1ccc(O)c(O)c1`, for which the mutagenic call is “inactive; negative” (Species/Cell Type: Human lymphocytes, Assay Type: Sister-chromatid exchange (SCE) in vitro, Assay Code: SCL-, Evaluation Type: Evaluation B (Post-1980)); “inactive; negative” (Species/Cell Type: Human, Assay Type: Sister-chromatid exchange (SCE) in vitro, Assay Code: SC1-, Evaluation Type: Evaluation B (Post-1980)); “inactive; negative” (Species/Cell Type: Mammalian polychromatic erythrocytes, Assay Type: Micronucleus test, chromosome aberrations, Assay Code: MNT-, Evaluation Type: Evaluation B (Post-1980)).
As for `[Mg+2]`, the mutagenic call under setting [7] was “inactive; negative”.
As for `CC[C@H](C)[C@@H]1NC(=O)CNC(=O)[C@@H]2Cc3c([nH]c4cc(O)ccc34)S(=O)C[C@H](NC(=O)CNC1=O)C(=O)N[C@@H](CC(N)=O)C(=O)N1C[C@H](O)C[C@H]1C(=O)N[C@@H]([C@@H](C)[C@@H](O)CO)C(=O)N2` (some centres undefined), the mutagenic call (Species/Cell Type: Drosophila melanogaster, Assay Type: Aneuploidy, whole sex chromosome loss, chromosome aberrations, Assay Code: DACT, Evaluation Type: Evaluation A (Pre-1980)) was “no conclusion”.
On to `CN(CC(=O)OC[C@H](N)C(=O)O)N=O`, for which the mutagenic call reads like this: (Species/Cell Type: Escherichia coli polA (W3110 vs P3478), Assay Type: Rec-assay, DNA effects (bacterial DNA repair), Assay Code: RE2+, Evaluation Type: Evaluation A (Pre-1980)) “active; positive”; (Species/Cell Type: Escherichia coli polA (W3119 vs P3478), Assay Type: Rec-assay, DNA effects (bacterial DNA repair), Assay Code: RE1T, Evaluation Type: Evaluation A (Pre-1980)) “no conclusion”.
In the case of `Oc1cc(O)cc(O)c1`, for the setting “Species/Cell Type: Allium cepa, Assay Type: Chromosome aberrations, Assay Code: ALC+D, Dose Response: With dose response, Evaluation Type: Evaluation A (Pre-1980)”, the mutagenic call was “active; positive”.
